In patent US4452778A, “Synergistic antibacterial compositions and method of treatment of infections caused by multiple antibiotic-resistant organisms” (Eli Lilly and Company, priority 1981, dated 1984):
Like-named read-outs stand apart in the source and are kept apart here.

System: Serratia marcescens
Test: Checkerboard broth dilution synergy study (mic)
Assay type: cell-based
Conditions: for MIC: Serratia marcescens, read-out: mic, drug alone

Molecule COC1(NC(=O)C(C(=O)O)c2ccc(O)cc2)C(=O)N2C(C(=O)O)=C(CSc3nnnn3C)COC21 (stereo not shown) [1-oxa compound I, moxalactam] has an MIC (Table II, strain 100) of 0.25 µg/mL, an MIC (Table II, strain 302-2) of 1 µg/mL and an MIC (Table II, strain 796) of 8 µg/mL. For the same molecule, the MIC (Table II, strain 14142) was 1 µg/mL, the MIC (Table II, strain Townsend) was 4 µg/mL and the MIC (Table III, isolate 463-2) was 8 µg/mL. It also gave an MIC (Table III, isolate 606) of 4 µg/mL, an MIC (Table III, isolate 1414) of 1 µg/mL and an MIC (Table III, isolate B377) of 8 µg/mL. For the same molecule, the MIC (Table III, isolate Ziegler) was 4 µg/mL, the “mic of each drug in combination I + P” value (Table II, strain 100) was 0.12 µg/mL and the “mic of each drug in combination I + T” value (Table II, strain 100) was 0.12 µg/mL. For the same molecule, the “mic of each drug in combination I + P” value (Table II, strain 302-2) was 0.12 µg/mL, the “mic of each drug in combination I + T” value (Table II, strain 302-2) was 0.12 µg/mL and the “mic of each drug in combination I + P” value (Table II, strain 796) was 2 µg/mL. For the same molecule, the “mic of each drug in combination I + T” value (Table II, strain 796) was 2 µg/mL, the “mic of each drug in combination I + P” value (Table II, strain 14142) was 0.12 µg/mL and the “mic of each drug in combination I + T” value (Table II, strain 14142) was 0.25 µg/mL. For the same molecule, the “mic of each drug in combination I + P” value (Table II, strain Townsend) was 2 µg/mL, the “mic of each drug in combination I + T” value (Table II, strain Townsend) was 1 µg/mL and the “mic of each drug in combination I + A” value (Table III, isolate 463-2) was < 0.06 µg/mL. The “mic of each drug in combination I + A” value (Table III, isolate 606) was 0.5 µg/mL, the “mic of each drug in combination I + A” value (Table III, isolate 1414) was 0.06 µg/mL and the “mic of each drug in combination I + A” value (Table III, isolate B377) was 0.12 µg/mL. For the same molecule, the “mic of each drug in combination I + A” value (Table III, isolate Ziegler) was 0.06 µg/mL.
